Patent US10519211B2, “Compounds as peptidic GLP1/glucagon/GIP receptor agonists” (SANOFI, priority 2016, dated 2019)
pEC50: −log10 of the molar value. Numbered stars: 1 amine (or outer) side, 2 acyl side, 3 side chain; on linkers, the order of the positions; unused ones are H or OH. Square brackets hold non-standard residues; d marks the D form. Side chains are listed from the residue outwards. Peptide text beside a SMILES is read from it. * marks the point of attachment. Adipoyl(4R-palmitoylamino) = CCCCCCCCCCCCCCCC(=O)N[C@H](CCC(=O)*)CC(=O)O; γGlu = O=C(O)[C@H](CCC(=O)[*:2])N[*:1]; Palmitoyl = CCCCCCCCCCCCCCCC(=O)*; AEEA = NCCOCCOCC(=O)O; Aib = CC(C)(N)C(=O)O

Assays:
[1] = target: T1, human GIP receptor (hGIP-R) (Homo sapiens, UniProt P48546); assay: cAMP response (HTRF) of HEK-293 cells stably expressing human GIP receptor; type: cell-based; settings: Table 8; cAMP formation
T1 construct: expressed in transfected cells; host or cells: HEK-293
T1 sequence (P48546 22-466): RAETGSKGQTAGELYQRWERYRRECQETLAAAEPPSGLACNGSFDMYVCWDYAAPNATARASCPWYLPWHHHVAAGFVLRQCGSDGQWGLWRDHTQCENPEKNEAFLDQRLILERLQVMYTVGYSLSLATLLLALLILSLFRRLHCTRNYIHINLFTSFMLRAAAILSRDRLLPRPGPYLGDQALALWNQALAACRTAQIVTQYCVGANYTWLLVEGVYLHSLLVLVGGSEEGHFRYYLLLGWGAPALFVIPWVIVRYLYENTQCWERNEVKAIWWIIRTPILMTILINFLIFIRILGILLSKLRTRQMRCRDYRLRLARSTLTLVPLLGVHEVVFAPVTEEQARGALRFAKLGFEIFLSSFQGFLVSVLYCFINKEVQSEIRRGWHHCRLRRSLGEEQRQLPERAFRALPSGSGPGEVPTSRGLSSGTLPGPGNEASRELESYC
Method: cAMP content of cells was determined using a kit from Cisbio Corp. (cat. no. 62AM4PEJ) based on HTRF (Homogenous Time Resolved Fluorescence). For preparation, cells were split into T175 culture flasks and grown overnight to near confluency in medium (DMEM/10% FBS). Medium was then removed and cells washed with PBS lacking calcium and magnesium, followed by proteinase treatment with accutase (Sigma-Aldrich cat. no. A6964). Detached cells were washed and resuspended in assay buffer (1×HBSS; 20 mM HEPES, 0.1% BSA, 2 mM IBMX) and cellular density determined. They were then diluted to 400000 cells/ml and 25 μl-aliquots dispensed into the wells of 96-well plates. For measurement, 25 μl of test compound in assay buffer was added to the wells, followed by incubation for 30 minutes at room temperature.
Potencies of peptidic compounds at the GLP-1, glucagon and GIP receptors were determined by exposing cells expressing human glucagon receptor (hGlucagon R), human GIP receptor (hGIP-R) or human GLP-1 receptor (hGLP-1 R) to the listed compounds at increasing concentrations and measuring the formed cAMP as described in Methods.

[2] = Thioflavin T (ThT) assay for physical stability (fibrillation); type: physicochemical; settings: 3 mg/ml, 100 mM acetate pH 4.5 with m-cresol, shaking at 37° C.
Method: Investigations were carried out to determine fibrillation tendencies under stress conditions by shaking at 37° C. within Fluoroskan Ascent FL.
For the tests in Fluoroskan Ascent FL, 200 μL sample were placed into a 96 well mictrotiter plate PS, flat bottom, Greiner Fluotrac No. 655076. Plates were sealed with Scotch Tape (Quiagen). Samples were stressed by continuous cycles of 10 s shaking at 960 rpm and 50 s rest period at 37° C. The kinetic was monitored by measuring fluorescence intensity every 20 minutes.
Peptides were diluted in a buffer system to a final concentration of 3 mg/ml. 20 μL of a 10.1 mM ThT solution in H2O were added to 2 mL of peptide solution to receive a final concentration of 100 μM ThT. For each sample eight replicates were tested.
Tht buffer system A) 100 mM Acetate pH 4.5 including m-cresol (100 mM Natriumacetat trihydrat, pH adjustment using 2N CH3COOH, 2.7 mg/mL m-cresol) Tht buffer system B) 100 mM citrate buffer pH 6.0
Lag time in hours in Thioflavin T (ThT) assay of peptide samples was determined in Tht buffer system A as described in Methods.

[3] = Solubility assessment (UPLC-UV); type: physicochemical; settings: acetate buffer pH 4.5, 2.7 mg/ml m-cresol (buffer system A), target 10 mg/ml
Method: Prior to the solubility measurement of a peptide batch, its purity was determined through UPLC/MS.
Therefore solutions from solid samples were prepared in a buffer systems with a concentration of 10 mg/mL compound based on the previously determined % purity:
Solubility buffer system A) Acetate Buffer pH 4.5, 100 mM sodium acetate trihydrate, 2.7 mg/ml m-Cresol
UPLC-UV was performed after 1 hour of gentle agitation from the supernatant, which was obtained after 15 min of centrifugation at 2500 RCF (relative centrifugal acceleration).
The solubility was determined by the comparison of the UV peak area of 2 μL-injection of a buffered sample diluted 1:10 with a standard curve of a reference peptide with known concentration. The different UV extinction coefficients of sample and reference peptide were calculated based on the different amino acid sequences and considered in the concentration calculation.
Peptide samples were prepared in solubility buffer system A and solubility was assessed as described in Methods.

[4] = Chemical stability assessment (UPLC-UV, relative purity loss); type: physicochemical; settings: 1 mg/ml, 25 mM acetate buffer pH 4.5 with m-cresol (buffer system A)
Method: Prior to the chemical stability measurement of a peptide batch, its purity was determined through UPLC/MS. For stability testing the target concentration was 1 mg pure compound/ml. Therefore solutions from solid samples were prepared in a buffer system with a concentration of 1 mg/mL compound based on the previously determined % purity:
Chemical stability buffer system A) 25 mM acetate buffer pH4.5, 3 mg/mL L-Methionine, 2.7 mg/mL m-cresol, 18 mg/mL Glycerol 85%
Peptide solutions were filtered through […] pore size and filled into aliquots under aseptic conditions. At starting point UPLC-UV was performed by injection of 2 μl of the undiluted sample.
For chemical stability testing, aliquots were stored for 28 days at Sand 40° C. After this time course the samples were centrifuged for 15 min at 2500 RCF. Then 2 μl of the undiluted supernatant were analysed with UPLC-UV.
The chemical stability was rated through the relative loss of purity calculated by the equation: [(purity at starting point)−(purity after 28 days at X° C.)]/(purity at starting point)]*100%
The purity is calculated as [(peak area peptide)/(total peak area)]*100%
Peptide samples were prepared in Chemical stability buffer system A and chemical stability was assessed as described in Methods.

[5] = Dynamic light scattering (DLS), hydrodynamic radius as surrogate for interaction parameter kD; type: physicochemical
Method: For every peptide solution, the hydrodynamic radius Rh and the diffusion constant D (related via the Stokes-Einstein equation) were determined as an average over triplicates. Both parameters were determined at different concentrations (e.g., Rh1 and D1: 1 mg/ml and Rh5 and D5: 5 mg/ml) in the same buffer system. The difference of these parameters between low and high peptide concentration is a surrogate for the DLS interaction parameter kD. Rh5<Rh1 or D5>D1 correspond to kD>0 and therefore to repulsive inter-particle interactions that result in improved physical (or colloidal) stability.
DLS buffer system A) 25 mM acetate buffer pH4.5, 3 mg/mL L-Methionine, 2.7 mg/mL m-cresol, 18 mg/mL Glycerol 85%
DLS Method C: DLS measurements were performed on a DynaPro Plate Reader II (Wyatt Technology, Santa Barbara, Calif., US) and using one of the following black, low volume, and non-treated plates: polystyrene 384 assay plate with clear bottom (Corning, N.Y., US), polystyrene 96 assay plate with clear bottom (Corning, N.Y., US), cyclo olefin polymer (COP) 384 assay plate with clear bottom (Aurora, Mont., US), or polystyrene 384 assay plate with clear bottom (Greiner Bio-One, Germany). The data were processed with the Dynamics software provided by Wyatt Technology. Parameters of the particle size distribution were determined with non-negatively constrained least squares (NNLS) methods using DynaLS algorithms. Measurements were taken at 25° C. with an 830 nm laser light source at an angle of 158°.
The hydrodynamic radius radius Rh of peptide samples was determined at different peptide concentrations (1 mg/ml and 5 mg/ml) in DLS buffer system A using DLS method C as described in Methods as surrogate for the DLS interaction parameter kD.

pEC50 [1]	Lag time before increase [2] [h]	solubility at 1 h [3] [mg/mL]	Chemical stability [relative purity loss 28 days 40° C.] (%) at pH 4.5 [4] [%]	Delta Rh [nm] = Rh5 − Rh1 ([5]; DLS buffer system A pH 4.5) [nm]	Rh1 [nm] c= 1 mg/ml ([5]; hydrodynamic radius, 1 mg/ml, DLS buffer system A pH 4.5, DLS method C, 25° C.) [nm]	Rh5 [nm] c = 5 mg/ml ([5]; hydrodynamic radius, 5 mg/ml, DLS buffer system A pH 4.5, DLS method C, 25° C.) [nm]	Structure (SMILES)
11.25	>45						CCCCCCCCCCCCCCCC(=O)NCCOCCOCC(=O)N[C@@H](CCC(=O)N[C@@H](CCC(=O)NCCCC[C@H](NC(=O)[C@H](CC(C)C)NC(=O)[C@H](CCCCN)NC(=O)[C@H](CO)NC(=O)[C@H](CC(C)C)NC(=O)[C@H](CC(=O)O)NC(=O)[C@H](CO)NC(=O)[C@@H](NC(=O)[C@H](Cc1ccccc1)NC(=O)[C@@H](NC(=O)CNC(=O)[C@H](CCC(N)=O)NC(=O)C(C)(C)NC(=O)[C@@H](N)Cc1c[nH]cn1)[C@@H](C)O)[C@@H](C)O)C(=O)N[C@@H](CCC(=O)O)C(=O)N[C@@H](CCC(=O)O)C(=O)N[C@@H](CCC(N)=O)C(=O)N[C@@H](CCCNC(=N)N)C(=O)N[C@@H](CCC(N)=O)C(=O)NC(C)(C)C(=O)N[C@@H](CCC(=O)O)C(=O)N[C@@H](Cc1ccccc1)C(=O)N[C@H](C(=O)N[C@@H](CCC(=O)O)C(=O)N[C@@H](Cc1c[nH]c2ccccc12)C(=O)N[C@@H](CC(C)C)C(=O)N[C@@H](CCCCN)C(=O)N[C@@H](C)C(=O)NCC(=O)NCC(=O)N[C@@H](Cc1c[nH]cn1)C(=O)N1CCC[C@H]1C(=O)N[C@@H](CO)C(=O)NC(C)(C)C(=O)N[C@@H](CCCCN)C(=O)N1CCC[C@H]1C(=O)N1CCC[C@H]1C(=O)N1CCC[C@H]1C(=O)N[C@@H](CCCCN)C(N)=O)[C@@H](C)CC)C(=O)O)C(=O)O [SEQ ID NO: 18, H-Aib-Q-G-T-F-T-S-D-L-S-K-L-K[gGlu-gGlu-AEEA-Palm]-E-E-Q-R-Q-Aib-E-F-I-E-W-L-K-A-G-G-H-P-S-Aib-K-P-P-P-K-NH2] (H-H[Aib]QGTFTSDLSKLK([γGlu-γGlu-AEEA-Palmitoyl])EEQRQ[Aib]EFIEWLKAGGHPS[Aib]KPPPK-NH2)
	>45	> 10.4	9.6	−0.1	2.8	2.7	CCCCCCCCCCCCCCCC(=O)N[C@H](CCC(=O)NCCOCCOCC(=O)N[C@@H](CCC(=O)NCCCC[C@H](NC(=O)[C@H](CC(C)C)NC(=O)[C@H](CCCCN)NC(=O)[C@H](CO)NC(=O)[C@H](CC(C)C)NC(=O)[C@H](CC(=O)O)NC(=O)[C@H](CO)NC(=O)[C@@H](NC(=O)[C@H](Cc1ccccc1)NC(=O)[C@@H](NC(=O)CNC(=O)[C@H](CCC(N)=O)NC(=O)C(C)(C)NC(=O)[C@@H](N)Cc1c[nH]cn1)[C@@H](C)O)[C@@H](C)O)C(=O)N[C@@H](CCC(=O)O)C(=O)N[C@@H](CCC(=O)O)C(=O)N[C@@H](CCC(N)=O)C(=O)N[C@@H](CCCNC(=N)N)C(=O)N[C@@H](CCC(N)=O)C(=O)NC(C)(C)C(=O)N[C@@H](CCC(=O)O)C(=O)N[C@@H](Cc1ccccc1)C(=O)N[C@H](C(=O)N[C@@H](CCC(=O)O)C(=O)N[C@@H](Cc1c[nH]c2ccccc12)C(=O)N[C@@H](CC(C)C)C(=O)N[C@@H](CCCCN)C(=O)N[C@@H](C)C(=O)N[C@H](C)C(=O)NCC(=O)N[C@@H](Cc1c[nH]cn1)C(=O)N1CCC[C@H]1C(=O)N[C@@H](CO)C(=O)NC(C)(C)C(=O)N[C@@H](CCCCN)C(=O)N1CCC[C@H]1C(=O)N1CCC[C@H]1C(=O)N1CCC[C@H]1C(=O)N[C@@H](CCCCN)C(N)=O)[C@@H](C)CC)C(=O)O)CC(=O)O [SEQ ID NO: 23, H-Aib-Q-G-T-F-T-S-D-L-S-K-L-K[gGlu-AEEA-gAAA-Palm]-E-E-Q-R-Q-Aib-E-F-I-E-W-L-K-A-dAla-G-H-P-S-Aib-K-P-P-P-K-NH2] (H-H[Aib]QGTFTSDLSKLK([γGlu-AEEA-Adipoyl(4R-palmitoylamino)])EEQRQ[Aib]EFIEWLKA[dA]GHPS[Aib]KPPPK-NH2)
